Measurements reported in patent US7732449B2, “Inhibitors of cathepsin S” (IRM LLC, priority 2003, dated 2010).
Like-named read-outs stand apart in the source and are kept apart here.

Legend:
Type in all cases: biochemical
Cathepsin S = Cathepsin S (Homo sapiens, UniProt P25774); assay: Cathepsin S inhibition, fluorogenic peptide substrate kinetic assay;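 note: cleavage rate of a coumarin-labelled peptide substrate (50 µM) read as fluorescence increase at Ex 380 nm and Em 450 nm, relative to inhibitor-free control reactions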
Cathepsin S, sequence (P25774 115-331, species assumed): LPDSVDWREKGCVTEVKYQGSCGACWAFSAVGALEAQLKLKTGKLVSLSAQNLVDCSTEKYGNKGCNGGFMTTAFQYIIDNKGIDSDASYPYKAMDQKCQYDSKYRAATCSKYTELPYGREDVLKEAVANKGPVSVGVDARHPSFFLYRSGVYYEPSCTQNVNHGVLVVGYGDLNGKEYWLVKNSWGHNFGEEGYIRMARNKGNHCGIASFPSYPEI

Cathepsin B = Cathepsin B (Homo sapiens, UniProt P07858); assay: Cathepsin B inhibition, fluorogenic peptide substrate kinetic assay (selectivity); conditions: ratio of cathepsin B inhibition constant to cathepsin S inhibition constant;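 note: value is the cathepsin B inhibition constant divided by the cathepsin S one, each from kinetic fluorescence readings (ex 380 nm, em 450 nm) of a 10 µM coumarin peptide substrate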
Cathepsin L = Cathepsin L (Homo sapiens, UniProt P07711); assay: Cathepsin L inhibition, fluorogenic peptide substrate kinetic assay (selectivity); conditions: ratio of cathepsin L inhibition constant to cathepsin S inhibition constant
Cathepsin L, sequence (P07711 114-333, species assumed): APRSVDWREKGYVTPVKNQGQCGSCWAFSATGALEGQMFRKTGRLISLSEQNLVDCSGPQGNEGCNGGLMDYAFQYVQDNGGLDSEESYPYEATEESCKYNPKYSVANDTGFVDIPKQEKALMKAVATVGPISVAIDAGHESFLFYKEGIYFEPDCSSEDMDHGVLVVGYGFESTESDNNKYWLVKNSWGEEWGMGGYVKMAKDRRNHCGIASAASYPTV

Cathepsin K = target: T1, Cathepsin K (Homo sapiens, UniProt P43235); assay: Cathepsin K inhibition, fluorogenic peptide substrate kinetic assay (selectivity); conditions: ratio of cathepsin K inhibition constant to cathepsin S inhibition constant
T1 sequence (P43235 115-329): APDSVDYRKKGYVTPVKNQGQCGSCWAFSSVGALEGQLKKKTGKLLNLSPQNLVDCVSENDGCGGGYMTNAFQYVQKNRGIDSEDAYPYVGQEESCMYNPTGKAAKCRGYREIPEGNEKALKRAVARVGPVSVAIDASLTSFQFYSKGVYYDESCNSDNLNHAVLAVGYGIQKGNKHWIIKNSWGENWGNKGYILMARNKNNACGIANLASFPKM

[1] = Cathepsin S inhibition constant, pH5.5, 20 minutes preincubation at room temperature, read-out: Ki Cat. S

Row | SMILES | Ki (Cathepsin S; [1]) | Selectivity for Cat. S over Cat. B (Cathepsin B) | Selectivity for Cat. S over Cat. L (Cathepsin L) | Ki (Cathepsin S) | Selectivity for Cat. S over Cat. K (Cathepsin K)
1 | CC(C)[C@@H](CN1CC(C)(C)c2cc(F)ccc21)NC(=O)OC(C(=O)N1CCOCC1)c1ccccc1 (mixture of isomers) [Example 109, [1-(S)-(5-Fluoro-3,3-dimethyl-2,3-dihydro-indol-1-ylmethyl)-2-methyl-propyl]-carbamic acid 2-morpholin-4-yl-2-oxo-1-(R,S)-phenyl-ethyl ester] | 1000 to 10000 nM | + (+, >10) | + (+, >10) |  | 
2 | O=C(NCCN1CCc2cc(F)ccc21)[C@H](CC1CCCCC1)OC(=O)N1CCOCC1 [Example 1, Morpholine-4-carboxylic acid (S)-2-cyclohexyl-1-[2-(5-fluoro-2,3-dihydro-indol-1-yl)-ethylcarbamoyl]-ethyl ester] | 1000 to 10000 nM | + (+, >10) |  |  | 
3 | CC(C)[C@@H](CNc1ccc(OC(F)(F)F)cc1)NC(=O)[C@@H](CC(=O)N1CCOCC1)CC1CCCCC1 [Example 24, 2-(R)-Cyclohexylmethyl-N-{2-methyl-1-(S)-[(4-trifluoromethoxy-phenylamino)-methyl]-propyl}-4-morpholin-4-yl-4-oxo-butyramide] |  |  |  | < 100 nM | 
4 | C[C@@H]1CN(C(=O)C[C@@H](CC2CCCCC2)C(=O)N[C@@H](C)CNc2ccc(OC(F)(F)F)cc2)C[C@H](C)O1 [Example 50, 2-(R)-Cyclohexylmethyl-4-(cis-2,6-dimethyl-morpholin-4-yl)-N-[1-(S)-methyl-2-(4-trifluoromethoxy-phenylamino)-ethyl]-4-oxo-butyramide] | < 100 nM | +++ (+++, >1000) |  |  | ++ (++, >100)
5 | C[C@@H](CN1CC(C)(C)c2cc(F)ccc21)NC(=O)[C@@H](CC(=O)N1CCOCC1)c1ccc(C(F)(F)F)cc1 [Example 66, N-[2-(5-Fluoro-3,3-dimethyl-2,3-dihydro-indol-1-yl)-1-(S)-methyl-ethyl]-4-morpholin-4-yl-4-oxo-2-(S)-(4-trifluoromethyl-phenyl)-butyramide] | 1000 to 10000 nM | + (+, >10) |  |  | 
6 | CS(=O)(=O)CC[C@@H](CNc1ccc(OC(F)(F)F)cc1)NC(=O)[C@H](CC1CCCCC1)NC(=O)N1CCOCC1 [Example 74, Morpholine-4-carboxylic acid (2-cyclohexyl-1-(S)-{3-methanesulfonyl-1-(S)-[(4-trifluoromethoxy-phenylamino)-methyl]-propylcarbamoyl}-ethyl)-amide] | < 100 nM | + (+, >10) |  |  | + (+, >10)
7 | CC(C)[C@@H](CNc1cccnc1)NC(=O)[C@H](CC1CCCCC1)NC(=O)N1CCOCC1 [Example 76, Morpholine-4-carboxylic acid {2-cyclohexyl-1-(S)-[2-methyl-1-(S)-(pyridin-3-ylaminomethyl)-propylcarbamoyl]-ethyl}-amide] | 100 to 1000 nM | + (+, >10) |  |  | + (+, >10)
8 | C[C@@H](CNc1nc2ccccc2s1)NC(=O)[C@H](CC1CCCCC1)NC(=O)N1CCOCC1 [Example 78, Morpholine-4-carboxylic acid {1-(S)-[2-(benzothiazol-2-ylamino)-1-(S)-methyl-ethylcarbamoyl]-2-cyclohexyl-ethyl}-amide] | 1000 to 10000 nM | + (+, >10) |  |  | + (+, >10)
9 | C[C@@H](CNc1nc2ccccc2o1)NC(=O)[C@H](CC1CCCCC1)NC(=O)N1CCOCC1 [Example 79, Morpholine-4-carboxylic acid {1-(S)-[2-(benzooxazol-2-ylamino)-1-(S)-methyl-ethylcarbamoyl]-2-cyclohexyl-ethyl}-amide] | 1000 to 10000 nM | + (+, >10) |  |  | + (+, >10)
10 | O=C(N[C@H](CN1CC2(CC2)c2cc(F)ccc21)C1CC1)[C@H](CC1CCCCC1)NC(=O)N1CCOCC1 [Example 82, Morpholine-4-carboxylic acid {2-cyclohexyl-1-(S)-[1-(S)-cyclopropyl-2-(5-fluoro-3,3-spirocyclopropyl-2,3-dihydro-indol-1-yl)-ethylcarbamoyl]-ethyl}-amide] | < 100 nM | ++ (++, >100) |  |  | ++ (++, >100)
11 | C[C@@H]1CN(C(=O)[C@H](CC2CCCCC2)OC(=O)N[C@@H](C)CN2c3ccc(F)cc3CC2(C)C)C[C@H](C)O1 [Example 93, [2-(5-Fluoro-2,2-dimethyl-2,3-dihydro-indol-1-yl)-1-(S)-methyl-ethyl]-carbamic acid 1-(S)-cyclohexylmethyl-2-(2,6-cis-dimethyl-morpholin-4-yl)-2-oxo-ethyl ester] | 1000 to 10000 nM | + (+, >10) |  |  | + (+, >10)

Now from value to molecule:

Row | Ki (Cathepsin S; [1]) | Selectivity for Cat. S over Cat. B (Cathepsin B) | Selectivity for Cat. S over Cat. L (Cathepsin L) | Ki (Cathepsin S) | Selectivity for Cat. S over Cat. K (Cathepsin K) | SMILES
12 | < 100 nM |  |  |  |  | C[C@@H](CNc1ccc(OC(F)(F)F)cc1)NC(=O)[C@H](CSCc1ccccc1)NC(=O)N1CCOCC1 [Example 17, Morpholine-4-carboxylic acid {2-benzylsulfanyl-1-(R)-[1-(S)-methyl-2-(4-trifluoromethoxy-phenylamino)-ethylcarbamoyl]-ethyl}-amide]
13 |  | ++ (++, >100) |  | < 100 nM | + (+, >10) | O=C(N[C@@H](CCc1ccccc1)CNc1ccc(OC(F)(F)F)cc1)[C@@H](CC(=O)N1CCOCC1)CC1CCCCC1 [Example 23, 2-(R)-Cyclohexylmethyl-4-morpholin-4-yl-4-oxo-N-{3-phenyl-1-(S)-[(4-trifluoromethoxy-phenylamino)-methyl]-propyl}-butyramide]
14 |  | ++ (++, >100) | ++ (++, >100) | 100 to 1000 nM |  | C[C@@H](CNc1ccc(OC(F)(F)F)cc1)NC(=O)[C@@H](CC(=O)N1CCOCC1)CC(C)(C)C [Example 26, 4,4-Dimethyl-2-(R)-(2-morpholin-4-yl-2-oxo-ethyl)-pentanoic acid [1-(S)-methyl-2-(4-trifluoromethoxy-phenylamino)-ethyl]-amide]
15 |  |  |  | < 100 nM |  | CS(=O)(=O)CC[C@@H](CNc1ccc(OC(F)(F)F)cc1)NC(=O)[C@@H](CC(=O)N1CCOCC1)CC1CCCCC1 [Example 28, 2-(R)-Cyclohexylmethyl-N-{3-methanesulfonyl-1-(S)-[(4-trifluoromethoxy-phenylamino)-methyl]-propyl}-4-morpholin-4-yl-4-oxo-butyramide]
16 |  |  |  | < 100 nM |  | CS(=O)(=O)CC[C@H](CNc1ccc(OC(F)(F)F)cc1)NC(=O)[C@@H](CC(=O)N1CCOCC1)CC1CCCCC1 [Example 29, 2-(R)-Cyclohexylmethyl-N-{3-methanesulfonyl-1-(R)-[(4-trifluoromethoxy-phenylamino)-methyl]-propyl}-4-morpholin-4-yl-4-oxo-butyramide]
17 |  |  |  | < 100 nM |  | CC(C)[C@@H](CNc1ccc(OC(F)(F)F)cc1)NC(=O)[C@H](CCCc1ccccc1)CC(=O)N1CCOCC1 [Example 30, 2-(R)-(2-Morpholin-4-yl-2-oxo-ethyl)-5-phenyl-pentanoic acid {2-methyl-1-(S)-[(4-trifluoromethoxy-phenylamino)-methyl]-propyl}-amide]
18 |  |  |  | < 100 nM |  | CC(C)[C@@H](CNc1ccc(OC(F)(F)F)cc1)NC(=O)[C@@H](CC(=O)N1CCOCC1)CC1CCCC1 [Example 31, 2-(R)-Cyclopentylmethyl-N-{2-methyl-1-(S)-[(4-trifluoromethoxy-phenylamino)-methyl]-propyl}-4-morpholin-4-yl-4-oxo-butyramide]
19 |  | +++ (+++, >1000) | + (+, >10) | < 100 nM |  | CC(C)[C@@H](CNc1ccc(OC(F)(F)F)cc1)NC(=O)[C@H](CCc1ccccc1)CC(=O)N1CCOCC1 [Example 32, N-{2-Methyl-1-(S)-[(4-trifluoromethoxy-phenylamino)-methyl]-propyl}-4-morpholin-4-yl-4-oxo-2-(R)-phenethyl-butyramide]
20 |  |  |  | < 100 nM |  | CC(C)[C@@H](CNc1ccc(OC(F)(F)F)cc1)NC(=O)[C@H](CCC1CCCC1)CC(=O)N1CCOCC1 [Example 33, 2-(R)-(2-Cyclopentyl-ethyl)-N-{2-methyl-1-(S)-[(4-trifluoromethoxy-phenylamino)-methyl]-propyl}-4-morpholin-4-yl-4-oxo-butyramide]
21 |  | +++ (+++, >1000) |  | < 100 nM |  | CC[C@@H](CNc1ccc(OC(F)(F)F)cc1)NC(=O)[C@H](CCc1ccccc1)CC(=O)N1CCOCC1 [Example 38, 4-Morpholin-4-yl-4-oxo-2-(R)-phenethyl-N-{1-(S)-[(4-trifluoromethoxy-phenylamino)-methyl]-propyl}-butyramide]
22 |  |  |  | < 100 nM |  | O=C(N[C@@H](CCc1ccccc1)CNc1ccc(OC(F)(F)F)cc1)[C@@H](CC(=O)N1CCOCC1)c1ccccc1 [Example 40, 4-Morpholin-4-yl-4-oxo-2-(S)-phenyl-N-{3-phenyl-1-(S)-[(4-trifluoromethoxy-phenylamino)-methyl]-propyl}-butyramide]
23 |  |  |  | 100 to 1000 nM |  | O=C(N[C@H](CNc1ccc(OC(F)(F)F)cc1)c1ccccc1)[C@@H](CC(=O)N1CCOCC1)c1ccccc1 [Example 44, 4-Morpholin-4-yl-4-oxo-2-(S)-phenyl-N-[1-(S)-phenyl-2-(4-trifluoromethoxy-phenylamino)-ethyl]-butyramide]
24 | < 100 nM | + (+, >10) |  |  | + (+, >10) | CC[C@@H](CNc1ccc(OC(F)(F)F)cc1)NC(=O)[C@H](CC1CCCCC1)NC(=O)N1CCOCC1 [Example 75, Morpholine-4-carboxylic acid (2-cyclohexyl-1(S)-{1-(S)-[(4-trifluoromethoxy-phenylamino)-methyl]-propylcarbamoyl}-ethyl)-amide]
